Test results taken from patent publication US7625872B2, “Branched immunomodulatory compounds and methods of using the same” (Dynavax Technologies Corporation, priority 2002, dated 2009).

System: human PBMC cells
Experiment: human PBMC assay: IFN-γ and IFN-α in cell-free medium by ELISA
Type: cell-based
Details: 24 hours; for IFN-α (pg/ml) 17240 / IFN-γ (pg/ml) 17240: donor 17240; for IFN-α (pg/ml) 17240 / IFN-γ (pg/ml) 17240 / IFN-α (pg/ml) 17241 / IFN-γ (pg/ml) 17241 / IFN-α (pg/ml) 17242 / IFN-γ (pg/ml) 17242 / IFN-α (pg/ml) 17243 / IFN-γ (pg/ml) 17243 / IFN-α (pg/ml) mean: test samples 20 μg/ml, '+ PLGA' = premixed with 100 μg/ml cPLGA; for IFN-α (pg/ml) 17240 / IFN-γ (pg/ml) 17240 / IFN-α (pg/ml) 17241 / IFN-γ (pg/ml) 17241 / IFN-α (pg/ml) 17242 / IFN-γ (pg/ml) 17242 / IFN-α (pg/ml) 17243 / IFN-γ (pg/ml) 17243: SAC 1/5000 dilution; for IFN-α (pg/ml) 17241 / IFN-γ (pg/ml) 17241: donor 17241; for IFN-α (pg/ml) 17242 / IFN-γ (pg/ml) 17242: donor 17242; for IFN-α (pg/ml) 17243 / IFN-γ (pg/ml) 17243: donor 17243; for IFN-α (pg/ml) mean: mean of 4 donors; for IFN-α +PLGA / IFN-γ +PLGA / IFN-α −PLGA / IFN-γ −PLGA: mean results (Table 4; unit in Table 3); for IFN-α +PLGA / IFN-γ +PLGA: 20 μg/ml formulated with 100 μg/ml cPLGA; for IFN-α −PLGA / IFN-γ −PLGA: compound alone, 20 μg/ml
Procedure: Peripheral blood was collected from volunteers by venipuncture using heparinized syringes. Blood was layered onto a FICOLL® (Amersham Pharmacia Biotech) cushion and centrifuged. PBMCs, located at the FICOLL® interface, were collected, then washed twice with cold phosphate buffered saline (PBS). The cells were resuspended and cultured in 48 well plates or 96-well plates at 2×10^6 cells/mL at 37° C. in RPMI 1640 with 10% heat-inactivated human AB serum plus 50 units/mL penicillin, 50 μg/mL streptomycin, 300 μg/mL glutamine, 1 mM sodium pyruvate, and 1×MEM non-essential amino acids (NEAA).
The cells were cultured in the absence of test samples, in the presence of test samples at 20 μg/ml (0.5 OD/ml), or in the presence of test samples at 20 μg/ml premixed with 100 μg/ml cationic poly(lactic acid, glycolic acid) microcarriers (cPLGA; see infra) (when used) for 24 hours. Cell-free medium was then collected from each well and assayed for IFN-γ and IFN-α concentrations. SAC (Pansorbin CalBiochem, 1/5000 dilution) was used as a positive control. SAC is Staph. aureus (cowan) cell material.
IFN-γ and IFN-α were assayed using CYTOSCREEN™ ELISA kits from BioSource International, Inc., according to the manufacturer's instructions.
Compound B07 (see Example 1, above) was tested for immunomodulatory activity in human PBMC cells as outlined in Example 9, above. For comparison purposes, the immunomodulatory activities of a variety of polynucleotides and chimeric molecules containing spacer moieties were also assayed. The syntheses and features of immunomodulatory chimeric molecules like compounds C-101, C-124, and C-125 are described in U.S. patent application Ser. No. 10/176,883 entitled, “Chimeric Immunomodulatory Compounds and Methods of Using the Same,” filed on Jun. 21, 2002, herein incorporated by reference. All nucleotide linkages and linkages between NAMs, spacer moieties and branch-point nucleosides in the listed compounds are phosphorothioate esters. HEG=hexaethylene glycol; symmetrical doubler=1,3-diamino-2-propanol; trebler=modified pentaerythritol; T-C6=2′-deoxyuridine; AHA=aminohexyl-3(E)-acrylamido linked at the C-5 position of 2′-deoxyuridine (see FIG. 1A). The compounds were each tested both alone and formulated with cPLGA (see Example 9, supra).

Substance | IFN-α (pg/ml) 17240 | IFN-γ (pg/ml) 17240 | IFN-α (pg/ml) 17241 | IFN-γ (pg/ml) 17241 | IFN-α (pg/ml) 17242 | IFN-γ (pg/ml) 17242 | IFN-α (pg/ml) 17243 | IFN-γ (pg/ml) 17243 | IFN-α (pg/ml) mean | IFN-α +PLGA | IFN-γ +PLGA | IFN-α −PLGA | IFN-γ −PLGA
(5′-TAGTCAT-3′-HEG)2-symmetrical doubler-HEG-5′-TAGTCAT-3′ [M-101] | 39 pg/mL | 24 pg/mL | 30 pg/mL | 10 pg/mL | 30 pg/mL | 10 pg/mL | 30 pg/mL | 22 pg/mL | 32 pg/mL | 68 pg/mL | 92 pg/mL | 32 pg/mL | 16 pg/mL
(5′-TAGTCAT-HEG)3-trebler-HEG-5′-TAGTCAT-3′ [M-102] | 30 pg/mL | 34 pg/mL | 30 pg/mL | 24 pg/mL | 30 pg/mL | 10 pg/mL | 30 pg/mL | 45 pg/mL | 30 pg/mL | 85 pg/mL | 61 pg/mL | 30 pg/mL | 28 pg/mL
(5′-TCGACGT3′-HEG)2-(T-C6 brancher)-HEG-5′-TCGACGT-3′ [B07 (#2)] | 1046 pg/mL | 207 pg/mL | 253 pg/mL | 129 pg/mL | 1365 pg/mL | 48 pg/mL | 520 pg/mL | 158 pg/mL | 796 pg/mL | 8998 pg/mL | 1016 pg/mL | 796 pg/mL | 135 pg/mL
(5′-TCGACGT-3′-HEG)2-glycerol-HEG-5′-TCGACGT-3′ [C-101] | 2189 pg/mL | 237 pg/mL | 520 pg/mL | 147 pg/mL | 1071 pg/mL | 73 pg/mL | 293 pg/mL | 142 pg/mL |  | 5609 pg/mL | 1323 pg/mL |  | 150 pg/mL
(5′-TCGACGT-3′-HEG)2-symmetrical doubler-HEG-5′-TCGACGT-3′ [C-124] | 1048 pg/mL | 303 pg/mL | 239 pg/mL | 155 pg/mL | 1186 pg/mL | 65 pg/mL | 249 pg/mL | 142 pg/mL | 680 pg/mL | 7017 pg/mL | 2661 pg/mL | 680 pg/mL | 166 pg/mL
(5′-TCGACGT-3′-HEG)3-trebler-HEG-5′-TCGACGT-3′ [C-125] | 1519 pg/mL | 253 pg/mL | 67 pg/mL | 136 pg/mL | 1284 pg/mL | 85 pg/mL | 309 pg/mL | 184 pg/mL | 795 pg/mL | 6348 pg/mL | 889 pg/mL | 795 pg/mL | 165 pg/mL
